Several values for one entry are separate records, joined by “and”; a condition that tells them apart may be missing. Identical values can stand only once. Activity calls are given as the source filed them. How the calls were made is not given here. Some results are limits rather than exact numbers.

This test concerns S. cerevisiae expressing PfHSP40, growth rescue, plate reader. Put plainly: S cerevisiae expressing PfHSP40, growth rescue, cherry pick dose confirmatory, plate reader (AID 540271).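 Further: yeast growth read after three days of incubation at 30 °C.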
For orientation: AC50 means the midpoint of the concentration-response curve, whichever way the signal moves. Regarding `COc1cc(/C=C2\SC(=S)N(NS(=O)(=O)c3ccc(C)cc3)C2=O)ccc1O`, the AC50 was 7.05 µM. For the compound `CCCCCOc1ccc(CSc2n[nH]c(C)n2)cc1`, the AC50 is 3.81 µM. For the compound `Oc1cccc2ccc(Nc3ccccn3)nc12`, the AC50 was 4.98 µM. Take `O=C(c1ccccc1)c1coc2c1C(=O)c1ccccc1C2=O`: the AC50 was 11.7 µM. Turning to `O/N=C/c1cc(Br)ccc1OCc1ccccc1F`, the AC50 was 4.76 µM. Consider `Cc1ccc(NC2=C(NC(=O)c3ccccc3)C(=O)c3ccccc3C2=O)cc1Cl`, for which the AC50 was 7.65 µM. In the case of `Cc1ccc(C)c(S(=O)(=O)N2CCN(Cc3ccc(O)c4ncccc34)CC2)c1`, the AC50 is 5.23 µM. As to `NNC(=O)c1ccc2nc(-c3ccc(Br)cc3)cn2c1`, the AC50 was 6.47 µM. As for `Cc1csc2nc(O)c(C(=O)NCCCc3ccccc3)c(=O)n12`, the AC50 was 4.55 µM. Consider `NC(=O)N=Nc1c2[nH]c3ccccc3nc-2c2ccccc12`, for which the AC50 is 3.89 µM. The figure for `O=C1OCC(CO)(CO)N=C1NNc1ccc(Cl)c(Cl)c1` is 1.87 µM; for `CCCCc1ccc(-n2c(Cc3cccs3)n[nH]c2=S)cc1` it is 6.45 µM; for `COc1ccc2cnn(CCOc3cc(C)ccc3C(C)C)c(=O)c2c1OC` it is 5.9 µM. Turning to `CC(C)=CCc1c(O)cc(O)c2c1OC(c1ccc(O)cc1)CC2=O` (configuration not stated), the AC50 was 5.76 µM. As to `COC(=O)C1=C(C)NC(C)=C(C(=O)OCC(C)C)C1c1ccccc1[N+](=O)[O-]` (configuration not stated), the half-maximal activity concentration (AC50) was 5.87 µM. With `O=C(Oc1ccc(N(C(=O)c2ccncc2)S(=O)(=O)c2ccc(Cl)cc2)cc1)c1ccncc1`, the AC50 is 5.85 µM. On to `Cc1ccc(NC2(c3nnnn3-c3c(C)cccc3C)CCCCC2)cc1`, for which the AC50 is 6.94 µM. For the compound `O=C(NC(=S)N(CCc1ccccc1)CCc1ccccc1)c1ccco1`, the AC50 was 5.34 µM. As for `CCN(CC)C(=O)CSc1ncnc2sc(-c3ccccc3)cc12`, the AC50 is 8.72 µM.

For the compound `COc1ccccc1CNC(=O)CSc1ccc(-c2ccccn2)nn1`, the AC50 was 5.89 µM. For `Clc1nc(-c2ccccn2)nc2scc(-c3ccccc3)c12`, the AC50 is 5.78 µM. On to `Cc1ccc([C@@H]2CC=C(C(=O)O)[C@H](c3ccc(Br)cc3)N2S(=O)(=O)c2ccccc2C)cc1`, for which the AC50 is 5.21 µM.

In the case of `CCc1ccc(S(=O)(=O)N(C(=O)c2ccncc2)c2ccc(OC(=O)c3ccncc3)cc2)cc1`, the AC50 is 3.01 µM. The figure for `Clc1ccccc1C(c1ccccc1)(c1ccccc1)n1ccnc1` is 0.387 µM. The figure for `CC1CCCCC1NC(=O)/C(C#N)=C/c1ccccc1F` (configuration not stated) is 5.7 µM; for `N#Cc1c(-c2ccc(Cl)cc2)n(O)c2ccccc12` it is 2.67 µM. The figure for `COc1cc(NS(=O)(=O)c2ccc(C)cc2)c2ncccc2c1` is 5.4 µM. For the compound `Cc1ccc(C)c(NS(=O)(=O)c2cc(C(=O)N3CCc4ccccc4C3)ccc2Cl)c1`, the AC50 is 6.77 µM. Consider `COc1cc([N+](=O)[O-])cc(/C=N/NC(=O)c2cncc(Br)c2)c1O`, for which the AC50 is 4.36 µM.

For the compound `CCCOc1ccc(C(=O)NNC(=S)NC(=O)CC)cc1`, the half-maximal activity concentration (AC50) was 6.95 µM. As for `Cc1ccc(SCCNC(=S)Nc2ccc(C)c(C)c2)cc1`, the AC50 was 6.21 µM. For the compound `CNc1cc(CSC)nc(SCc2ccc(Cl)cc2Cl)n1`, the AC50 is 4.18 µM. In the case of `O=C(O)c1c(NC(=O)N2CCCC2)sc2c1CCCC2`, the half-maximal activity concentration (AC50) was 3.42 µM. For `Cc1ccc(CCNc2ncnc(Cl)c2N)cc1`, the AC50 was 4.48 µM. As to `O=C(C1CCN(C2CC(=O)N(c3cccc(Cl)c3)C2=O)CC1)N1CCCC1` (configuration not stated), the AC50 was 6.02 µM. As to `COc1ccc(-c2sc3ccccc3c2C#Cc2cncn2C)cc1`, the AC50 was 6.77 µM. On to `CC(C)C(=O)NC(c1ccco1)c1ccc2cccnc2c1O` (configuration not stated), for which the AC50 was 4.51 µM.

Consider `C[n+]1c2cc(N)ccc2cc2ccc(N)cc21`, for which the AC50 was 1.82 µM and 1 µM. Turning to `CCC(=O)NC(c1ccco1)c1cc(Cl)c2cccnc2c1O` (configuration not stated), the AC50 is 2.99 µM.

On to `O=C1/C(=C/c2cccs2)SC(=S)N1NS(=O)(=O)c1ccccc1`, for which the AC50 was 3.9 µM. Regarding `Cc1cc(/C=N/n2cnnc2)c(C)n1-c1ccc(OCc2ccc(F)cc2)cc1`, the AC50 is 4.69 µM. As for `CCc1cc(C(=O)Nc2nc(-c3ccccn3)cs2)sc1C`, the AC50 is 4.3 µM. Turning to `CCCCCCn1c(=O)c(C(=O)Nc2ncccc2C)c(O)c2ccccc21`, the AC50 is 3.03 µM. In the case of `O=[N+]([O-])c1ccc(S(=O)(=O)c2ccccc2)nc1`, the AC50 was 2.23 µM. On to `N=c1c2c(-c3ccccc3)c(-c3ccccc3)n(Cc3ccco3)c2ncn1CCCn1ccnc1`, for which the AC50 was > 12 µM (inactive). In the case of `O=C(COc1ccccc1F)Nc1nc(-c2ccccn2)cs1`, the AC50 was 5.52 µM. For the compound `CCCCNC(=S)N/N=C1\CCCCc2ccccc21`, the AC50 is 10.3 µM. In the case of `CCc1ccc(NC(=O)CSc2ccc(-c3ccccn3)nn2)cc1`, the AC50 is 2.44 µM.

Consider `O=C(/C(=N/N=C/c1ccc(O)c(O)c1O)c1ccccc1)c1ccccc1`, for which the AC50 was 6.09 µM. The figure for `CCC(C)Sc1cccc(-c2nc3ccccn3c2NCc2ccccc2)c1` (configuration not stated) is 7.22 µM; for `Cc1c(C2(O)CCCCC2)[nH]c2ccc(C(F)(F)F)cc12` it is 7.22 µM; for `CCc1ccc(C(C)NC(=S)NC2CCCCC2)cc1` (configuration not stated) it is 7.1 µM. As to `CN(C)c1ccc(C=c2c3ccccc3n3c2cc(-c2ccc(Cl)cc2)[n+]3C)cc1`, the AC50 is 7.4 µM.

Take `O=Nc1c(O)c2ccccc2c2ccccc12`: the AC50 is 0.902 µM. Regarding `CCN1/C(=C/c2sc(-c3ccccc3C)c[n+]2C)Sc2ccccc21`, the AC50 was 5.83 µM.

For `O=C(COC(=O)c1ccc([N+](=O)[O-])o1)NCc1ccc(F)cc1`, the AC50 was 6.66 µM. `CC(C)(C)c1cc(-c2nc(N)nc(N)n2)c(O)c(C(C)(C)C)c1`: the AC50 was 4.99 µM. The figure for `O=c1c(Cl)c(Cl)cnn1Cc1nnc(-c2ccc(Cl)cc2)o1` is 7.45 µM; for `CN(C)c1nc(SCc2ccc(Cl)cc2)nc2c1CCCC2` it is 5.58 µM; for `COc1ccc(C(=O)c2c(C(F)(F)F)oc3c2C(=O)c2ccccc2C3=O)cc1OC` it is 6.24 µM. On to `CC1=NN(C(N)=S)C(=O)C1N=Nc1cccc(Cl)c1C` (configuration not stated), for which the AC50 was 3.3 µM.

Consider `O=C(Cc1ccccc1F)Nc1nc(-c2ccc(F)c(F)c2)cs1`, for which the AC50 was 6.72 µM. For the compound `COc1cccc(-n2nc(C#N)c(Cl)cc2=O)c1`, the AC50 was 5.59 µM. In the case of `CCCCC(=O)NC(c1ccc(OC)c(OC)c1)c1ccc2cccnc2c1O` (configuration not stated), the AC50 was 1.83 µM.

In the case of `O=C1CC(N2CCCCCC2)C(=O)N1c1ccc2c(c1)OCO2` (configuration not stated), the AC50 was 4.18 µM. As for `COc1ccc2c(n1)Sc1nc3ccccc3nc1N2`, the AC50 is 1.35 µM. For `Cn1nnnc1N=N/C(=N/Nc1ccccc1)c1ccccc1` the value was 1.85 µM. The figure for `C[C@@]12C(=O)Nc3ccc(F)cc3C(=O)N1[C@H]1c3ccccc3OC[C@@H]1[C@@H]2c1ccccc1` is 8.46 µM.

With `O=C(N/N=C(\c1ccccc1)c1cccnc1)c1cccc(F)c1`, the AC50 is 4.97 µM. For `O=c1cnn([C@@H]2O[C@H](CO)[C@@H](O)[C@H]2O)c(=O)[nH]1` the value was > 12 µM (inactive); for `CCc1sc(C(=O)Nc2nc(-c3ccccn3)cs2)cc1C`, 1.82 µM. `Oc1ccc(-c2nc3ccccc3s2)c(O)c1`: the AC50 is 7.43 µM. `Cn1ccsc1=NC(=O)c1ccc([N+](=O)[O-])o1`: the AC50 was > 12 µM (inactive). Turning to `Cc1ccc(CNC(=O)CSc2ccc(-c3ccccn3)nn2)cc1`, the AC50 was 4.21 µM. In the case of `O=c1c2ccccc2nc(-c2ccc(-c3ccccc3)cc2)n1-c1ccncc1`, the AC50 is 6.21 µM.

For the compound `CCOC(=O)C1=C(Cc2ccc(OC)cc2)C(=O)c2ccccc2C1=O`, the AC50 was 5.4 µM. `CCCCC(=O)NC(=S)NNC(=O)CCc1ccccc1`: the AC50 was 5.21 µM. Take `Oc1ccccc1-c1cc(-c2ccc3c(c2)OCCO3)n[nH]1`: the half-maximal activity concentration (AC50) is 5.24 µM. Take `N#C/C(=C\Nc1ccccc1O)c1nc2ccccc2o1`: the AC50 is 9.96 µM. For `CCCCC(=O)NC(c1ccco1)c1cc(Cl)c2cccnc2c1O` (configuration not stated), the AC50 was 2 µM. `CC(C)(C)C(O)C(Cc1ccccc1Cl)n1cncn1` (configuration not stated): the AC50 is 0.215 µM. For `COc1nc(NC23CC4CC(CC(C4)C2)C3)nc(OC)n1`, the concentration at half-maximal activity (AC50) is 10.9 µM.

Consider `CC(=O)Nc1cccc(NC(=O)CSc2ccc(-c3ccccn3)nn2)c1`, for which the AC50 was 3.64 µM. For `CC(CNC(=O)COc1ccccc1)OC(=O)Nc1ccc(Cl)c(Cl)c1` (configuration not stated) the value was 6.12 µM. Take `Nc1[nH]c(=O)ncc1F`: the AC50 was 1.51 µM.

As for `CCOC(=O)N1C(=O)C2(CCCCC2)N(c2ccccc2Cl)C1=S`, the AC50 was 0.084 µM.

Regarding `Cc1cc(Cl)ccc1C(=O)C1CCCN(C(=O)c2cncs2)C1` (configuration not stated), the AC50 was 4.83 µM. Consider `CCOC(=O)c1cccc2c1-c1ccccc1/C2=N/O`, for which the half-maximal activity concentration (AC50) is 6.3 µM. The figure for `CCOC(=O)c1c(C)oc2c1C(=O)c1ccccc1C2=O` is 6.76 µM; for `CCOc1ccc(-n2c(O)c(/C=N/NC(=O)C3COc4ccccc4O3)c3ccccc3c2=O)cc1` (configuration not stated) it is 4.11 µM; for `COc1cnc(-c2ccccn2)nc1Sc1ccc(C)cc1` it is 5.97 µM.

As for `COc1cccc2c1C(=O)c1c(O)c3c(c(O)c1C2=O)C[C@@](O)(C(=O)CO)C[C@@H]3O[C@H]1C[C@H](N)[C@H](O)[C@H](C)O1`, the AC50 was 6.48 µM. The figure for `Cc1ccc(O)c(-c2cc(-c3ccccc3C)[nH]n2)c1` is 5.42 µM; for `O=C1C(Nc2ccccc2)=C/C(=N/S(=O)(=O)c2cccs2)c2ccccc21` it is 3.48 µM; for `O=C(Nc1cccc(-c2nc3ccccc3s2)c1)c1cccs1` it is 5.98 µM. Turning to `CC(=O)Nc1ccc2c(c1)Cc1cc(N3C(=O)C=CC3=O)ccc1-2`, the AC50 was 0.526 µM.

In the case of `O=C(CSc1nc2ccccc2s1)N/N=C/c1cc([N+](=O)[O-])ccc1O`, the AC50 was 5.52 µM.

Consider `Cc1ccc(NC(=S)c2nc3ccccc3[nH]2)c(C)c1`, for which the AC50 was 6.15 µM. Take `COc1ccc(S(=O)(=O)N(C(=O)c2ccncc2)c2ccc(OC(=O)c3ccncc3)cc2)cc1`: the AC50 is 4.46 µM.

Regarding `COc1ccc(OC)c(-c2c3cc(O)c(=O)cc-3oc3cc(O)c(O)cc23)c1`, the AC50 is 3.79 µM. `O=Cc1cc(N=Nc2ccccc2Cl)ccc1O`: the AC50 was 0.768 µM. On to `CC(C)NC(=O)NC(=O)COC(=O)c1ccc([N+](=O)[O-])cc1Cl`, for which the AC50 is 12 µM.
